# Data as given in ChEMBL document CHEMBL1156106 (J Med Chem, 2009).
# pIC50, pKi: −log10 of the molar value.
# Legend:
# [1] = molecular target: T1, Sodium-dependent dopamine transporter (Homo sapiens, UniProt Q01959); assay: Displacement of [125I]RTI55 from cloned human DAT expressed in HEK293 cells; format: cell-based
# [2] = molecular target: T2, Sodium-dependent serotonin transporter (Homo sapiens, UniProt P31645); assay: Inhibition of [3H]serotonin reuptake at human SERT expressed in HEK293 cells; format: cell-based
# T2 sequence (P31645 whole entry): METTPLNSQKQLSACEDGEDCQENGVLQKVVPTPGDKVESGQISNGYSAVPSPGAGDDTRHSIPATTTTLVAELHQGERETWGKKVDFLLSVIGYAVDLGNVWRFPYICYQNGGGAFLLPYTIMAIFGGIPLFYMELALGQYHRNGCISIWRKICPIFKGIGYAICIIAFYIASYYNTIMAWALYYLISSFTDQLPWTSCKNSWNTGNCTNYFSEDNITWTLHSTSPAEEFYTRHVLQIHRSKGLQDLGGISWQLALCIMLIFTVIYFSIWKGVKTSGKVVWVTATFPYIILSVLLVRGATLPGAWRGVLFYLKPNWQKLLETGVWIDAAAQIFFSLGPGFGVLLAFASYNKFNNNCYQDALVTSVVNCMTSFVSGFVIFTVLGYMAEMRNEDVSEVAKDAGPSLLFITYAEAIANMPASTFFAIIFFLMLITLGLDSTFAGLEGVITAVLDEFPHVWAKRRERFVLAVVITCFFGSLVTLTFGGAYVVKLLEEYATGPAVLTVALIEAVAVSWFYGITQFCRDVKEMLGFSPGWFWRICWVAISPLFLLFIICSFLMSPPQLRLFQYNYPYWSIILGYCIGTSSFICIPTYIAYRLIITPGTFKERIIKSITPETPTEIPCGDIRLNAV
# [3] = molecular target: T2, Sodium-dependent serotonin transporter; assay: biochemical; format: cell-based, HEK293
# [4] = molecular target: T3, Sodium-dependent noradrenaline transporter (Homo sapiens, UniProt P23975); assay: Inhibition of [3H]norepinephrine reuptake at human NET expressed in HEK293 cells; format: cell-based
# T3 sequence (P23975 whole entry): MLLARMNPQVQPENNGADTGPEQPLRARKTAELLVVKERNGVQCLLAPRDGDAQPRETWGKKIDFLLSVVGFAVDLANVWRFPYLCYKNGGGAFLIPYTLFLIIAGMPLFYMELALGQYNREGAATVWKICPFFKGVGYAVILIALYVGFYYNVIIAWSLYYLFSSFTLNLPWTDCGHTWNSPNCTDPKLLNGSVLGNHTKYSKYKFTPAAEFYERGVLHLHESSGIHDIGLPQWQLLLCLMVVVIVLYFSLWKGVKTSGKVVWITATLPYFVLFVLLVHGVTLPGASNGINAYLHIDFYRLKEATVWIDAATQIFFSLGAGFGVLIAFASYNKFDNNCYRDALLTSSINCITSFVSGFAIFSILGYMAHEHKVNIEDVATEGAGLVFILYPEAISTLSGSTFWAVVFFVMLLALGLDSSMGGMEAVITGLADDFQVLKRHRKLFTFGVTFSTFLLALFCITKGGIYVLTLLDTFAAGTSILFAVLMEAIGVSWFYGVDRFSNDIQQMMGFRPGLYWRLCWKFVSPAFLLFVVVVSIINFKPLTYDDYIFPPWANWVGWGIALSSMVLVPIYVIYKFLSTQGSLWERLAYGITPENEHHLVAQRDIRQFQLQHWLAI
# [5] = molecular target: T3, Sodium-dependent noradrenaline transporter; assay: Displacement of [125I]RTI55 from cloned human NET expressed in HEK293 cells; format: cell-based
# Mus musculus [6] = assay: Antidepressant activity in ip dosed mouse assessed as duration of locomotor activity; format: functional
# Mus musculus [7] = assay: Antidepressant activity in ip dosed mouse assessed as stimulation of locomotor activity; format: functional
# [8] = molecular target: T1, Sodium-dependent dopamine transporter; assay: Inhibition of [3H]dopamine reuptake at human DAT expressed in HEK293 cells; format: cell-based
# Mus musculus [9] = assay: Antidepressant activity in ip dosed mouse assessed as stimulation of locomotor activity relative to cocaine; format: functional
# Mus musculus [10] = assay: Antidepressant activity in ip dosed mouse assessed as time to reach peak stimulation of locomotor activity; format: functional
# Rattus norvegicus [11] = assay: Effect on behavioural activity in ip dosed rat assessed as cocaine-induced lever response pretreated with cocaine by drug-discrimination studies; format: functional
# Rattus norvegicus [12] = assay: Effect on behavioural activity in rat assessed as cocaine-induced lever response at 5 mg/kg, ip pretreated with cocaine for 15 mins by drug-discrimination studies; format: functional; details: route intraperitoneal
# Rattus norvegicus [13] = assay: Effect on behavioural activity in rat assessed as cocaine-induced lever response at 25 mg/kg, ip pretreated with cocaine for 15 mins by drug-discrimination studies; format: functional; details: route intraperitoneal
# Rattus norvegicus [14] = assay: Effect on behavioural activity in rat assessed as cocaine-induced lever response at 100 mg/kg, ip pretreated with cocaine for 15 mins by drug-discrimination studies; format: functional; details: route intraperitoneal
# Rattus norvegicus [15] = assay: Effect on behavioural activity in rat assessed as cocaine-induced lever response at 50 mg/kg, ip pretreated with cocaine for 15 mins by drug-discrimination studies; format: functional; details: route intraperitoneal
# Rattus norvegicus [16] = assay: Effect on behavioural activity in rat assessed as cocaine-induced lever response at 0.5 mg/kg, ip pretreated with cocaine for 15 mins by drug-discrimination studies; format: functional; details: route intraperitoneal
# Rattus norvegicus [17] = assay: Effect on behavioural activity in rat assessed as cocaine-induced lever response at 2.5 mg/kg, ip pretreated with cocaine for 15 mins by drug-discrimination studies; format: functional; details: route intraperitoneal
# Rattus norvegicus [18] = assay: Effect on behavioural activity in rat assessed as cocaine-induced lever response at 1 mg/kg, ip pretreated with cocaine for 15 mins by drug-discrimination studies; format: functional; details: route intraperitoneal
# Rattus norvegicus [19] = assay: Effect on behavioural activity in rat assessed as cocaine-induced lever response at 10 mg/kg, ip pretreated with cocaine for 15 mins by drug-discrimination studies; format: functional; details: route intraperitoneal
# Rattus norvegicus [20] = assay: Effect on behavioural activity in po dosed rat assessed as cocaine-induced lever response pretreated with cocaine by drug-discrimination studies; format: functional
# Rattus norvegicus [21] = assay: Effect on behavioural activity in rat assessed as cocaine-induced lever response at 25 mg/kg, po pretreated with cocaine for 90 mins by drug-discrimination studies; format: functional
# Rattus norvegicus [22] = assay: Effect on behavioural activity in rat assessed as cocaine-induced lever response at 5 mg/kg, ip pretreated with cocaine for 30 mins by drug-discrimination studies; format: functional; details: route intraperitoneal
# Rattus norvegicus [23] = assay: Effect on behavioural activity in rat assessed as cocaine-induced lever response at 25 mg/kg, po pretreated with cocaine for 360 mins by drug-discrimination studies; format: functional
# Rattus norvegicus [24] = assay: Effect on behavioural activity in rat assessed as cocaine-induced lever response at 1 mg/kg, ip pretreated with cocaine for 30 mins by drug-discrimination studies; format: functional; details: route intraperitoneal
# Rattus norvegicus [25] = assay: Effect on behavioural activity in rat assessed as cocaine-induced lever response at 10 mg/kg, ip pretreated with cocaine for 30 mins by drug-discrimination studies; format: functional; details: route intraperitoneal
# Rattus norvegicus [26] = assay: Effect on behavioural activity in rat assessed as cocaine-induced lever response at 25 mg/kg, ip pretreated with cocaine for 30 mins by drug-discrimination studies; format: functional; details: route intraperitoneal
# Rattus norvegicus [27] = assay: Effect on behavioural activity in rat assessed as cocaine-induced lever response at 50 mg/kg, po pretreated with cocaine for 180 mins by drug-discrimination studies; format: functional
# Rattus norvegicus [28] = assay: Effect on behavioural activity in rat assessed as cocaine-induced lever response at 10 mg/kg, po pretreated with cocaine for 45 mins by drug-discrimination studies; format: functional
# Rattus norvegicus [29] = assay: Effect on behavioural activity in rat assessed as cocaine-induced lever response at 2.5 mg/kg, po pretreated with cocaine for 45 mins by drug-discrimination studies; format: functional
# Rattus norvegicus [30] = assay: Effect on behavioural activity in rat assessed as cocaine-induced lever response at 10 mg/kg, po pretreated with cocaine for 180 mins by drug-discrimination studies; format: functional
# Rattus norvegicus [31] = assay: Effect on behavioural activity in rat assessed as cocaine-induced lever response at 50 mg/kg, po pretreated with cocaine for 45 mins by drug-discrimination studies; format: functional
# Rattus norvegicus [32] = assay: Effect on behavioural activity in rat assessed as cocaine-induced lever response at 5 mg/kg, po pretreated with cocaine for 360 mins by drug-discrimination studies; format: functional
# Rattus norvegicus [33] = assay: Effect on behavioural activity in rat assessed as cocaine-induced lever response at 2.5 mg/kg, ip pretreated with cocaine for 30 mins by drug-discrimination studies; format: functional; details: route intraperitoneal
# Rattus norvegicus [34] = assay: Effect on behavioural activity in rat assessed as cocaine-induced lever response at 5 mg/kg, po pretreated with cocaine for 90 mins by drug-discrimination studies; format: functional
# Rattus norvegicus [35] = assay: Effect on behavioural activity in rat assessed as cocaine-induced lever response at 5 mg/kg, po pretreated with cocaine for 180 mins by drug-discrimination studies; format: functional
# Rattus norvegicus [36] = assay: Effect on behavioural activity in rat assessed as cocaine-induced lever response at 25 mg/kg, po pretreated with cocaine for 45 mins by drug-discrimination studies; format: functional
# Rattus norvegicus [37] = assay: Effect on behavioural activity in rat assessed as cocaine-induced lever response at 5 mg/kg, po pretreated with cocaine for 45 mins by drug-discrimination studies; format: functional
# Rattus norvegicus [38] = assay: Effect on behavioural activity in rat assessed as cocaine-induced lever response at 50 mg/kg, po pretreated with cocaine for 360 mins by drug-discrimination studies; format: functional
# Rattus norvegicus [39] = assay: Effect on behavioural activity in rat assessed as cocaine-induced lever response at 10 mg/kg, po pretreated with cocaine for 90 mins by drug-discrimination studies; format: functional
# T1 sequence (Q01959 whole entry): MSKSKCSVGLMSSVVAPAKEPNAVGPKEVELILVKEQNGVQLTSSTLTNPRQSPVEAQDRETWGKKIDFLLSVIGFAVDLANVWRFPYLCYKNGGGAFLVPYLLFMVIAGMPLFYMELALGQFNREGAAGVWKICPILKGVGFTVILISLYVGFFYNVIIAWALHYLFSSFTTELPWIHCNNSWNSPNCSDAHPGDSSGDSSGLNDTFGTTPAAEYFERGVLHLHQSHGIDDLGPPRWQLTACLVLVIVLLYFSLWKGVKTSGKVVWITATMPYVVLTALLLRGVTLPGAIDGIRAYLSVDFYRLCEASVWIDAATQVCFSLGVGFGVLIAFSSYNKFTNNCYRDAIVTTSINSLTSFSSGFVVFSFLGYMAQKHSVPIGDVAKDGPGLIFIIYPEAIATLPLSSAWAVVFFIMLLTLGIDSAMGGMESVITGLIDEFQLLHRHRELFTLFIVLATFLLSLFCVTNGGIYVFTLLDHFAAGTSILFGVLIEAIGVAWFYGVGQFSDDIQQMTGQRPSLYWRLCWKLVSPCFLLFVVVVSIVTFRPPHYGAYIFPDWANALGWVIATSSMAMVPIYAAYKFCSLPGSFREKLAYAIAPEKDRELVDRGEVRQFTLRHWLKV
Compound,pKi [1],pKi [3],pKi [5],Time (Mus musculus [6]) [min],ED50 (Mus musculus [7]) [mg/kg],Activity (Mus musculus [9]) [%],Time to peak locomotor stimulation (Mus musculus [10]) [min],ED50 (Rattus norvegicus [11]) [mg/kg],Activity (Rattus norvegicus [12]) [%],Activity (Rattus norvegicus [13]) [%],Activity (Rattus norvegicus [14]) [%],Activity (Rattus norvegicus [15]) [%],further results
CC(C)CC(NC(C)(C)C)C(=O)c1cccc(Cl)c1 (configuration not stated),6.85,5.21,5.64,60,25.7,89,260,,,,,,pIC50 [2]: < 5.00; pIC50 [4]: 6.44; pIC50 [8]: 6.36
Cc1ccc(C(=O)C(C)NC(C)(C)C)cc1 (configuration not stated),< 5.00,< 5.00,,60,3.8,26,30,17.3,0.6,16.7,100,66.7,
CC(C)NC(C)C(=O)c1cccc(Cl)c1 (configuration not stated),,< 5.00,< 5.00,50,6.2,46,20,8.8,43.8,78.6,94.9,73.5,Activity (Rattus norvegicus [16]): 0.3%; Activity (Rattus norvegicus [17]): 27%; Activity (Rattus norvegicus [18]): 21.2%; Activity (Rattus norvegicus [19]): 53.3%
CC(NC1CCCC1)C(=O)c1cccc(Cl)c1 (configuration not stated),,< 5.00,,330,12.3,107,0,10.9,,,,,ED50 (Rattus norvegicus [20]): 6.6 mg/kg; Activity (Rattus norvegicus [21]): 67%; Activity (Rattus norvegicus [22]): 0%; Activity (Rattus norvegicus [23]): 34%; Activity (Rattus norvegicus [24]): 0.9%; Activity (Rattus norvegicus [25]): 66.2%; Activity (Rattus norvegicus [26]): 83.4%; Activity (Rattus norvegicus [27]): 33%; Activity (Rattus norvegicus [28]): 60%; Activity (Rattus norvegicus [29]): 17%; Activity (Rattus norvegicus [30]): 0%; Activity (Rattus norvegicus [31]): 100%; Activity (Rattus norvegicus [32]): 0%; Activity (Rattus norvegicus [33]): 23.9%; Activity (Rattus norvegicus [34]): 0%; Activity (Rattus norvegicus [35]): 0%; Activity (Rattus norvegicus [36]): 67%; Activity (Rattus norvegicus [37]): 50%; Activity (Rattus norvegicus [38]): 16%; Activity (Rattus norvegicus [39]): 33%
